Assay results taken from patent US9675068B2, “Solid form sodium lauryl sulfate (SLS) crawling pest elimination composition” (ECOLAB USA INC., priority 2008, dated 2017).

Assay: Ability of SLS forms to go into solution in water
Type: physicochemical
Details: at 12% and 18%
Description: In one embodiment, the pesticide composition of the present invention includes a combination of sodium lauryl sulfate (SLS) and water. In particular, the pesticide composition includes a combination of a solid form of sodium lauryl sulfate and water. Suitable component concentrations for a concentrate of the pesticide composition include between about 90% and about 100% sodium lauryl sulfate by weight and balance water, particularly between about 93% and about 100% sodium lauryl sulfate by weight and balance water and more particularly between about 95% and about 100% sodium lauryl sulfate by weight and balance water. Suitable component concentrations for a use solution of the pesticide composition include between about 1% and about 10% sodium lauryl sulfate by weight and balance water and particularly between about 1% and about 6% sodium lauryl sulfate by weight and balance water. At concentrations higher than about 12% by weight sodium lauryl sulfate, solid form sodium lauryl sulfate may not effectively form a solution. In other embodiments, similar intermediate concentrate and use concentrations may also be present in the cleaning compositions of the invention.
The compositions of Examples 1, 2 and 3 are compositions of the present invention using needle form sodium lauryl sulfate (SLS) as the active ingredient in a pesticide composition. […]

## CCCCCCCCCCCCOS(=O)(=O)[O-].[Na+] [needle form SLS, sodium lauryl sulfate]
  going into solution in water: would not go into solution
